Assay results taken from US20190134033A1, “PHARMACEUTICAL COMBINATIONS” (Novartis AG, priority 2013, published 2019).

What was measured:
[1] = test system: NB-1 neuroblastoma xenograft; experiment: NB-1 neuroblastoma in vivo xenograft model, LDK378 and Compound C alone and combined (Example 2, FIG. 8); details: NB1 model, PO QD, LDK378 50 mg/kg, Compound C 20 mg/kg
Description: The combination of LDK378 (Compound B) and HDM-2/p53 inhibitor (S)-5-(5-Chloro-1-methyl-2-oxo-1,2-dihydro-pyridin-3-yl)-6-(4-chloro-phenyl)-2-(2,4- dimethoxy-pyrimidin-5-yl)-1-isopropyl-5,6-dihydro-1H-pyrrolo[3,4-d]imidazol-4-one (Compound C) were tested in NB-1 neuroblastoma in vivo xenograft model. A total of 5 animals per group were enrolled in efficacy study. For single-agent and combination studies, animals were dosed via oral gavage for both LDK378 and Compound C. LDK378 was formulated in 0.5% CMC/0.5% Tween 80, and Compound C was formulated in Methylcellulose 0.5% w/V in pH 6.8 50 mM phosphate buffer at 20 mg/kg as free base. For NB1 model, the tumors reached approximately 200 mm^3 at day 16 post implantation. On Day 16, tumor-bearing mice were randomized into treatment groups.
Animals were weighed at dosing day(s) and dose was body weight adjusted, dosing volume was 10 ml/kg. Tumor dimensions and body weights were collected at the time of randomization and twice weekly thereafter for the study duration. The following data was provided after each day of data collection: incidence of mortality, individual and group average body weights, and individual and group average tumor volume.

[2] = test system: TRP-590A-SHSY5Y-XEF (ALK F1174L mutated); experiment: SY5Y Xenograft, LDK378 and CGM097 alone and combined (FIG. 6); assay type: in vivo
[3] = test system: p53; experiment: Induction of p53 and its downstream target genes in ALK mutant and p53 WT neuroblastoma cell lines; assay type: cell-based
Description: (§1) Compound stocks of LDK378 (compound B) and NVP-CGM097 (compound A) are prepared in DMSO at a final concentration of 10 mM. Working stocks of compound A and compound B are serially diluted in the appropriate cell culture medium to achieve final assay concentrations ranging from 10 μM to 0.039 μM.
(§2) ALK+NB neuroblastoma cell line is disclosed in G. Barone, et al in the journal Clin. Cancer Res., Vol 19, pp 5814-5821 (2013).

[4] = test system: NB-1 Xenograft; experiment: NB-1 Xenograft, LDK378 single agent and combinations with CGM097 and LEE011 (FIG. 5, FIG. 7); assay type: in vivo
Description: FIG. 5 summarizes data for treatments with LDK378 (ALK inhibitor) and CGM097 (HDM-2/P53 Inhibitor) as single agents and in combination in a NB-1 Xenograft.
FIG. 7 summarizes data for LDK378 Single Agent and Combination Treatments with NVP-CGM097 in a NB-1 Xenograft. […] After treatment termination, tumors resumed growth.

[5] = test system: ALK; experiment: ALK phosphorylation in ALK mutant and p53 WT neuroblastoma cell lines; assay type: cell-based
Description: as §1, §2

Row | SMILES | T/C % on day 25 [1] [%] | T/C % on day 25 ([1]; listed as COMPOUND C) [%] | tumor growth under continuous treatment [2] | induction of p53 and its downstream target genes [3] | tumor growth under continuous treatment [4] | ALK phosphorylation [5]
1 | COc1ncc(-c2nc3c(n2C(C)C)[C@H](c2ccc(Cl)cc2)N(c2cc(Cl)cn(C)c2=O)C3=O)c(OC)n1 [Compound C, (S)-5-(5-Chloro-1-methyl-2-oxo-1,2-dihydro-pyridin-3-yl)-6-(4-chloro-phenyl)-2-(2,4-dimethoxy-pyrimidin-5-yl)-1-isopropyl-5,6-dihydro-1H-pyrrolo[3,4-d]imidazol-4-one] | 50.8 | 50.80 | – | – | – | –
2 | COc1cc2c(cc1OC(C)C)[C@H](c1ccc(Cl)cc1)N(c1ccc(N(C)C[C@H]3CC[C@H](N4CCN(C)C(=O)C4)CC3)cc1)C(=O)C2 [CGM097, (S)-1-(4-Chloro-phenyl)-7-isopropoxy-6-methoxy-2-(4-{methyl-[4-(4-methyl-3-oxo-piperazin-1-yl)-trans-cyclohexylmethyl]-amino}-phenyl)-1,4-dihydro-2H-isoquinolin-3-one] | – | – | continued to grow | caused induction of p53 and its downstream target genes | – | –
3 | Cc1cc(Nc2ncc(Cl)c(Nc3ccccc3S(=O)(=O)C(C)C)n2)c(OC(C)C)cc1C1CCNCC1 [LDK378, 5-chloro-N2-(2-isopropoxy-5-methyl-4-(piperidin-4-yl)phenyl)-N4-[2-(propane-2-sulfonyl)-phenyl]-pyrimidine-2,4-diamine] | 27.6 | – | continued to grow | – | resumed growth before day 41 | inhibited ALK phosphorylation
